Laboratory results published in patent US11339171B2, “MDM2 inhibitors” (Gan & Lee Pharmaceuticals, priority 2017, dated 2022).
pIC50: −log10 of the molar value.

Columns and labels:
[1] = test system: human osteosarcoma cell line SJSA-1; experiment: Inhibition of proliferation of human osteosarcoma cell line SJSA-1 (DAPI staining, In Cell Analyzer); settings: for IC50: Homo sapiens, SJSA-1, 72 h, read-out: IC50 (nM), inhibitory activity on proliferation of human osteosarcoma cell line SJSA-1, SJSA-1, incubated 72 h
MDM2 = molecular target: T1, MDM2 (Homo sapiens, UniProt Q00987); experiment: Inhibition test of MDM2-P53 (GST-MDM2, Biotin-P53, Anti-GST-Tb, SA-XL665); type: binding
T1 construct: made in house
How it was run: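 Binding was measured by TR-FRET with GST-MDM2 at 4 nM final in PBS with 0.1% BSA, 5 mM DTT and 1 mM AEBSF. Compounds were tested as twelve-point 5-fold dilutions and incubated with the detection mix for 90 min at 25 °C with shaking before plate-reader reading and curve fitting.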

[2] = labels are Example numbers, the compounds with S-configuration are meant

T1 sequence (Q00987 whole entry): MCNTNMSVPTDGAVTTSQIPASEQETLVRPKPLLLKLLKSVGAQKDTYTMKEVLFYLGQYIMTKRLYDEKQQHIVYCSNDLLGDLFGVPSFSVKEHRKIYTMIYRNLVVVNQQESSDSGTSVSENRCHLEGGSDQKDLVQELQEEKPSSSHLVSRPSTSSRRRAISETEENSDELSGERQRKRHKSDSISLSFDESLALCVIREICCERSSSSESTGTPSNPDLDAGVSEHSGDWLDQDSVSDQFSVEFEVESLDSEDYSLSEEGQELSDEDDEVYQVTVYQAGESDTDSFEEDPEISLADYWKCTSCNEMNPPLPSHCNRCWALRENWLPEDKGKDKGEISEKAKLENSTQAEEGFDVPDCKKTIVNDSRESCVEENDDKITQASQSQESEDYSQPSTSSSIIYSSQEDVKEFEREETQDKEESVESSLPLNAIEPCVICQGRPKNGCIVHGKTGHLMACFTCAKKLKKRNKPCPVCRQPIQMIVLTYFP

COc1ccccc1-c1nc2c(n1C(C)C)[C@]1(C(=O)Nc3cc(Cl)ccc31)N(c1cc(Cl)ccc1C)C2=O [Example R-5, (R)-6-chloro-5′-(5-chloro-2-methylphenyl)-3′-isopropyl-2′-(2-methoxyphenyl)-3′H-spiro[dihydroindole-3,4′-pyrrolo[3,4-d]imidazole]-2,6′(5′H)-dione]
IC50 [1]: 1600 nM
pIC50 (MDM2): 6.96

COc1cc(OC(C)C)ncc1-c1nc2c(n1C(C)C)C1(C(=O)Nc3cc(Cl)ccc31)N(c1cc(Cl)cnc1C)C2=O (centres unmarked) [Example 137, 6-chloro-5′-(5-chloro-2-methylpyridin-3-yl)-2′-(6-isopropoxy-4-methoxypyridin-3-yl)-3′-isopropyl-3′H-spiro[dihydroindole-3,4′-pyrrolo[3,4-d]imidazole]-2,6′(5′H)-dione]
inhibitory effect on human osteosarcoma cell line SJSA-1 compared with positive control compound HDM201 [1, 2]: better
inhibitory effect on MDM2 compared with positive control compound HDM201 (MDM2; [2]): better

CCc1ccc(OC)c(-c2nc3c(n2C(C)C)[C@@]2(C(=O)Nc4cc(Cl)ccc42)N(c2cc(Cl)ccc2C)C3=O)c1 [Example S-37, (S)-6-chloro-5′-(5-chloro-2-methylphenyl)-2′-(5-ethyl-2-methoxyphenyl)-3′-isopropyl-3′H-spiro[dihydroindole-3,4′-pyrrolo[3,4-d]imidazole]-2,6′(5′H)-dione]
IC50 [1]: 14.2 nM
pIC50 (MDM2): 7.66

CCOc1ccc(-c2nc3c(n2C(C)C)[C@@]2(C(=O)Nc4cc(Cl)ccc42)N(c2cccc(Cl)c2)C3=O)c(OC)c1 [Example S-100, (S)-6-chloro-5′-(3-chlorophenyl)-2′-(4-ethoxy-2-methoxyphenyl)-3′-isopropyl-3′H-spiro[dihydroindole-3,4′-pyrrolo[3,4-d]imidazole]-2,6′(5′H)-dione]
IC50 [1]: 1210 nM
pIC50 (MDM2): 8.50

COc1nc(N)ncc1-c1nc2c(n1C(C)C)[C@@]1(C(=O)Nc3cc(Cl)ccc31)N(c1cc(Cl)ccc1C)C2=O [Example S-90, (S)-2′-(2-amino-4-methoxypyrimidin-5-yl)-6-chloro-5′-(5-chloro-2-methylphenyl)-3′-isopropyl-3′H-spiro[dihydroindole-3,4′-pyrrolo[3,4-d]imidazole]-2,6′(5′H)-dione]
IC50 [1]: 255 nM
pIC50 (MDM2): 8.86

COc1ccc(CC(=O)N(C)C)cc1-c1nc2c(n1C(C)C)[C@]1(C(=O)Nc3cc(Cl)ccc31)N(c1cc(Cl)ccc1C)C2=O [Example R-70, (R)-2-(3-(6-chloro-5′-(5-chloro-2-methylphenyl)-3′-isopropyl-2,6′-dioxo-5′,6′-dihydro-3′H-spiro[dihydroindole-3,4′-pyrrolo[3,4-d]imidazole]-2′-yl)-4-methoxyphenyl)-N,N-dimethylacetamide]
IC50 [1]: 4210 nM
pIC50 (MDM2): 6.95

COc1cc(C(C)(C)C)ccc1-c1nc2c(n1C(C)C)[C@@]1(C(=O)Nc3cc(Cl)ccc31)N(c1cc(Cl)ccc1C)C2=O [Example S-101, (S)-2′-(4-(tert-butyl)-2-methoxyphenyl)-6-chloro-5′-(5-chloro-2-methylphenyl)-3′-isopropyl-3′H-spiro[dihydroindole-3,4′-pyrrolo[3,4-d]imidazole]-2,6′(5′H)-dione]
IC50 [1]: 48.5 nM
pIC50 (MDM2): 8.01

COc1cc(C2CC2)cc(OC)c1-c1nc2c(n1C(C)C)[C@@]1(C(=O)Nc3cc(Cl)ccc31)N(c1cc(Cl)ccc1C)C2=O [Example S-108, (S)-6-chloro-5′-(5-chloro-2-methylphenyl)-2′-(4-cyclopropyl-2,6-dimethoxyphenyl)-3′-isopropyl-3′H-spiro[dihydroindole-3,4′-pyrrolo[3,4-d]imidazole]-2,6′(5′H)-dione]
IC50 [1]: 28.8 nM
pIC50 (MDM2): 8.05

COc1ncc(-c2nc3c(n2C(C)C)[C@]2(C(=O)Nc4cc(Cl)ccc42)N(c2cc(Cl)ccc2F)C3=O)c(OC)n1 [Example R-44, (R)-6-chloro-5′-(5-chloro-2-fluorophenyl)-2′-(2,4-dimethoxypyrimidin-5-yl)-3′-isopropyl-3′H-spiro[dihydroindole-3,4′-pyrrolo[3,4-d]imidazole]-2,6′(5′H)-dione]
IC50 [1]: 1330 nM
pIC50 (MDM2): 7.29

COc1ncc(-c2cc3c(n2C(C)C)[C@@]2(C(=O)Nc4cc(Cl)ccc42)N(c2cc(Cl)ccc2C)C3=O)c(OC)n1 [Example S-50, (S)-6-chloro-5′-(5-chloro-2-methylphenyl)-2′-(2,4-dimethoxypyrimidin-5-yl)-1′-isopropyl-1′H-spiro[dihydroindole-3,6′-pyrrolo[3,4-b]pyrrole]-2,4′(5′H)-dione]
IC50 [1]: 1320 nM
pIC50 (MDM2): 7.07

COc1ccccc1-c1nc2c(n1C(C)C)[C@@]1(C(=O)Nc3cc(Cl)ccc31)N(c1cc(Cl)ccc1C)C2=O [Example S-5, (S)-6-chloro-5′-(5-chloro-2-methylphenyl)-3′-isopropyl-2′-(2-methoxyphenyl)-3′H-spiro[dihydroindole-3,4′-pyrrolo[3,4-d]imidazole]-2,6′(5′H)-dione]
IC50 [1]: 25.4 nM
pIC50 (MDM2): 8.49

CNC(=O)c1ccc(-c2nc3c(n2C(C)C)[C@@]2(C(=O)Nc4cc(Cl)ccc42)N(c2cc(Cl)ccc2C)C3=O)c(OC)c1 [Example S-54, (S)-4-(6-chloro-5′-(5-chloro-2-methylphenyl)-3′-isopropyl-2,6′-dioxo-5′,6′-dihydro-3′H-spiro[dihydroindole-3,4′-pyrrolo[3,4-d]imidazole]-2′-yl)-3-methoxy-N-methylbenzamide]
IC50 [1]: 468 nM
pIC50 (MDM2): 8.65

COc1cc(OC(C)C)ncc1-c1nc2c(n1C(C)C)[C@]1(C(=O)Nc3cc(Cl)ccc31)N(c1cc(Cl)ccc1C)C2=O [Example R-69, (R)-6-chloro-5′-(5-chloro-2-methylphenyl)-2′-(6-isopropoxy-4-methoxypyridin-3-yl)-3′-isopropyl-3′H-spiro[dihydroindole-3,4′-pyrrolo[3,4-d]imidazole]-2,6′(5′H)-dione]
IC50 [1]: 6580 nM
pIC50 (MDM2): 6.20

COc1cc(N)ccc1-c1nc2c(n1C(C)C)[C@@]1(C(=O)Nc3cc(Cl)ccc31)N(c1cc(Cl)ccc1C)C2=O [Example S-49, (S)-2′-(4-amino-2-methoxyphenyl)-6-chloro-5′-(5-chloro-2-methylphenyl)-3′-isopropyl-3′H-spiro[dihydroindole-3,4′-pyrrolo[3,4-d]imidazole]-2,6′(5′H)-dione]
IC50 [1]: 5.92 nM
pIC50 (MDM2): 8.76

COc1nc(C2CC2)ncc1-c1nc2c(n1C(C)C)[C@@]1(C(=O)Nc3cc(Cl)ccc31)N(c1cccc(Cl)c1)C2=O [Example S-122, (S)-6-chloro-5′-(3-chlorophenyl)-2′-(2-cyclopropyl-4-methoxypyrimidin-5-yl)-3′-isopropyl-3′H-spiro[dihydroindole-3,4′-pyrrolo[3,4-d]imidazole]-2,6′(5′H)-dione]
IC50 [1]: 117 nM
pIC50 (MDM2): 8.56

COc1cc(C(F)(F)F)ncc1-c1nc2c(n1C(C)C)[C@@]1(C(=O)Nc3cc(Cl)ccc31)N(c1cc(Cl)cnc1C)C2=O [Example S-152, (S)-6-chloro-5′-(5-chloro-2-methylpyridin-3-yl)-3′-isopropyl-2′-(4-methoxy-6-(trifluoromethyl)pyridine-3-yl)-3′H-spiro[dihydroindole-3,4′-pyrrolo[3,4-d]imidazole]-2,6′(5′H)-dione]
IC50 [1]: 79.8 nM
pIC50 (MDM2): 9.11

COc1cc(F)ccc1-c1nc2c(n1C(C)C)[C@]1(C(=O)Nc3cc(Cl)ccc31)N(c1cc(Cl)ccc1C)C2=O [Example R-4, (R)-6-chloro-5′-(5-chloro-2-methylphenyl)-2′-(4-fluoro-2-methoxyphenyl)-3′-isopropyl-3′H-spiro[dihydroindole-3,4′-pyrrolo[3,4-d]imidazole]-2,6′(5′H)-dione]
IC50 [1]: 2190 nM
pIC50 (MDM2): 6.88

COc1ccccc1-c1nc2c(n1C(C)C)[C@@]1(C(=O)Nc3cc(Cl)ccc31)N(c1cc(Cl)cn(C)c1=O)C2=O [Example S-43, (S)-6-chloro-5′-(5-chloro-1-methyl-2-oxo-1,2-dihydropyridin-3-yl)-3′-isopropyl-2′-(2-methoxyphenyl)-3′H-spiro[dihydroindole-3,4′-pyrrolo[3,4-d]imidazole]-2,6′(5′H)-dione]
IC50 [1]: 564 nM
pIC50 (MDM2): 8.48

COc1cc(OC)c(-c2nc3c(n2C(C)C)[C@@]2(C(=O)Nc4cc(Cl)ccc42)N(c2cc(Cl)ccc2C)C3=O)cc1C [Example S-83, (S)-6-chloro-5′-(5-chloro-2-methylphenyl)-2′-(2,4-dimethoxy-5-methylphenyl)-3′-isopropyl-3′H-spiro[dihydroindole-3,4′-pyrrolo[3,4-d]imidazole]-2,6′(5′H)-dione]
IC50 [1]: 6.21 nM
pIC50 (MDM2): 8.65

COc1ncc(-c2nc3c(n2C(C)C)[C@]2(C(=O)Nc4cc(Cl)ccc42)N(c2cc(F)cc(Cl)c2)C3=O)c(OC)n1 [Example R-45, (R)-6-chloro-5′-(3-chloro-5-fluorophenyl)-2′-(2,4-dimethoxypyrimidin-5-yl)-3′-isopropyl-3′H-spiro[dihydroindole-3,4′-pyrrolo[3,4-d]imidazole]-2,6′(5′H)-dione]
IC50 [1]: 4310 nM
pIC50 (MDM2): 6.77

COc1ccc(C(N)=O)cc1-c1nc2c(n1C(C)C)[C@@]1(C(=O)Nc3cc(Cl)ccc31)N(c1cc(Cl)ccc1C)C2=O [Example S-29, (S)-3-(6-chloro-5′-(5-chloro-2-methylphenyl)-3′-isopropyl-2,6′-dioxo-5′,6′-dihydro-3′H-spiro[dihydroindole-3,4′-pyrrolo[3,4-d]imidazole]-2′-yl)-4-methoxybenzamide]
IC50 [1]: 196 nM
pIC50 (MDM2): 9.00

Cc1ccc(Cl)cc1N1C(=O)c2nc(-c3ccccc3OC(F)F)n(C(C)C)c2[C@@]12C(=O)Nc1cc(Cl)ccc12 [Example S-30, (S)-6-chloro-5′-(5-chloro-2-methylphenyl)-2′-(2-(difluoromethoxy)phenyl)-3′-isopropyl-3′H-spiro[dihydroindole-3,4′-pyrrolo[3,4-d]imidazole]-2,6′(5′H)-dione]
IC50 [1]: 58.1 nM
pIC50 (MDM2): 8.48
